One test deals with PKM2 enzyme (Homo sapiens, UniProt P14618). In words: PKM2 enzyme activity assay (KINASE GLO Plus). The format is biochemical. The method, then: 5. PKM2 Enzyme Activity Assay
PKM2 biochemical assay Compounds were pre-incubated with 2 nmol/L PKM2 enzyme in reaction buffer (50 mmol/L Tris-HCl, pH 8.0, 200 mmol/L KCl, 30 mmol/L MgCl2, 2 mmol/L dithiothreitol (DTT), 5% DMSO) for 30 minutes at room temperature. ADP and PEP were then added to final concentrations of […] and 15 mmol/L, respectively. After 30 minutes, ATP formation was measured by KINASE GLO® Plus from Promega, and Concentration at half-maximal activation (AC50) values were determined using Prism GraphPad Software.
PKM2 enzyme activity assay over the concentration of formula I was performed in KINASE GLO® Plus assay. The controls were conducted in the presence of 5% Dimethyl sulfoxide (DMSO) and normalized to 100%±SD. […] (n=3, **p<0.005, ***p<0.001). […] The maximum PKM2 enzyme activity was more than 200% compared to that in controls.
On the technique in general: Kinase-Glo measures the ATP left after a reaction by luminescence.

A further test deals with A549 cells. In words: Apoptosis assay, Annexin V/PI flow cytometry, A549. The following applies: 24, 48 and 72 hours, vs control group. The format is cell-based. The method, then:
(§1) A549 and H1975 cells (1×10^5 cells/well) were seeded in a well plate with 6 wells for 24 hours, and treated with the indicated concentrations of formula I for an additional 24 hours, 48 hours and 72 hours at 37° C. After indicated hours, the cells were washed by ice-cold 1×PBS once and harvested by trypsination. Then cells were centrifuged, collected, and resuspended in ice-cold 1×PBS. After removing the supernatants, cell pellets were re-suspended in 100 μL 1×Annexin-binding buffer. The cells were then double-stained with Annexin-V FITC and PI (100 μg/mL) of 2 μL respectively for 15 min at room temperature in dark. After that, 300 μL 1× Annexin-binding buffer was added. Apoptotic cells were quantitatively counted by a BD Aria III Flow Cytometer (BD Biosciences, San Jose, Calif., USA)
In general terms: A flow cytometer gives signals particle by particle.

The next test deals with H1975 cells. In words: Apoptosis assay, Annexin V/PI flow cytometry, H1975. It counts as cell-based. The following applies: 24, 48 and 72 hours, vs control group. The method, then: as §1
The subject of test [1] is PKM2 phosphorylation / AKT pathway in A549 cells. The experiment in a line: Western blot analysis, A549. It counts as cell-based. As to the method:
(§2) After incubation A549 and H1975 cells with formula I for 24 hours and 72 hours, A549 and H1975 cells were harvested and washed with cold 1×PBS. Then, cells were lysed with ice-cold RIPA lysis buffer with protease, and phosphatase inhibitors were added to extract the cell protein extraction. The supernatants were collected by centrifugation at 12,000 g, for 5 minutes. The quantitation of total protein extraction was measured by Bio-Rad DCTM protein assay kit (Bio-Rad, Philadelphia, Pa., USA). Then 30 μg of protein were loaded and electrophoretically separated on 8% SDS-PAGE gel and then transferred to Nitrocellulose (NC) membrane. Membranes were blocked with 5% non-fat milk and […] containing 0.1% Tween-20 (TBST) for 1 hour at room temperature. After 1 hour, membranes were incubated with primary anti-bodies (1:1000 dilution) against β-actin, total/phosphor-PKM2, total/phosphor-AKT, and BCL-2 at 4° C. with gently shaking overnight. Membranes were washed with TBST for 3 times (5 minutes/time), and incubated with secondary fluorescent antibody (1:10000 dilutions) for 1 hour at room temperature. Rewashing with TBST for 3 times (15 minutes/time), the stripes were visualized by LI-COR Odessy scanner (Belfast, Me., USA).
For orientation: In western blotting, separated proteins are transferred to a membrane and probed.

Test [2] relates to PKM2 phosphorylation / AKT pathway in H1975 cells. The experiment in a line: Western blot analysis, H1975. The format is cell-based. As to the method:
as §2

SMILES strings stand for the structures.

One compound from patent US9744145B1, “Methods for treating lung cancer” (Macau University of Science and Technology, priority 2017, dated 2017) can be followed below.

PKM2 enzyme, sequence (P14618 whole entry): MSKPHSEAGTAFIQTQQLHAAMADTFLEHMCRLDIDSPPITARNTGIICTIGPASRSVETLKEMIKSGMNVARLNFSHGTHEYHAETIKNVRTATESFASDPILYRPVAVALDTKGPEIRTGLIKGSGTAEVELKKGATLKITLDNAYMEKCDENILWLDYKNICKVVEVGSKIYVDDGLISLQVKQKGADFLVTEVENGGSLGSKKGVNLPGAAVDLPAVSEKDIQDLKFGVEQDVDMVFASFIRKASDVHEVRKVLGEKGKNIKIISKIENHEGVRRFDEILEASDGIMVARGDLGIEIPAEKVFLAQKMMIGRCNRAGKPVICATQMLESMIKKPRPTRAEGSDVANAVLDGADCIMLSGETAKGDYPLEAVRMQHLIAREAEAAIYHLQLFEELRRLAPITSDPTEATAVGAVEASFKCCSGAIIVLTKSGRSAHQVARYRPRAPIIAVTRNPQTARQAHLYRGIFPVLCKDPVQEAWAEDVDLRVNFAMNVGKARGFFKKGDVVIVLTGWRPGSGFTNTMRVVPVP

For the compound `O=S(=O)(Nc1ccccc1)c1ccc(-c2ccc(S(=O)(=O)Nc3ccccc3)cc2)cc1` [formula I], the AC50 on PKM2 enzyme (2 nmol/L PKM2, KINASE GLO Plus, n=3, read-out: AC50 (concentration at half-maximal activation)) turned out to be 5.5 ± 1 µM. Further, the “maximum PKM2 enzyme activity compared to controls” value at PKM2 enzyme (controls with 5% DMSO normalized to 100%) is given as “more than 200%”. Also, the apoptosis level result in the test on A549 cells and with H1975 cells was “induced significant level of apoptosis in a concentration-dependent manner” throughout. The AKT pathway entry in test [1] and in test [2] was “selectively inhibited AKT pathway” each time. Further, the PKM2 phosphorylation entry in test [1] (β-actin loading control) and in test [2] (β-actin loading control) was “activated phosphorylation of both PKM2 in a dose-dependent manner” throughout.
